The source made the active and inactive calls. No cut-off for these calls is given here.
Key:
PC-12 [1] = test: Enhancement of neurite length extending from cell bodies in NGF-mediated rat PC12 cells at 0.1 to 50 uM after 4 days; assay type: functional, cell-based
PC-12 [2] = test: Enhancement of neurite outgrowth in rat PC12 cells assessed as morphological changes after 4 days by phase-contrast microscopy in absence of NGF; assay type: functional, cell-based
PC-12 [3] = test: Enhancement of NGF-induced neurite outgrowth in rat PC12 cells assessed as morphological changes at 0.1 to 50 uM after 4 days by phase-contrast microscopy; assay type: functional, cell-based
PC-12 [4] = test: Enhancement of NGF-induced neurite outgrowth in rat PC12 cells assessed as morphological changes after 4 days by phase-contrast microscopy; assay type: functional, cell-based
PC-12 [5] = test: Cytotoxicity against rat PC12 cells at 50 uM; assay type: cell-based; details: pc-12, 50 µM
PC-12 [6] = test: Enhancement of neurite length extending from cell bodies in NGF-mediated rat PC12 cells at 30 uM after 4 days; assay type: functional
PC-12 [7] = test: Enhancement of neurite length extending from cell bodies in NGF-mediated rat PC12 cells at 10 uM after 4 days; assay type: functional
PC-12 [8] = test: Enhancement of neurite length extending from cell bodies in NGF-mediated rat PC12 cells at 1 uM after 4 days; assay type: functional
PC-12 [9] = test: Enhancement of neurite length extending from cell bodies in NGF-mediated rat PC12 cells at 0.1 uM after 4 days; assay type: functional
PC-12 [10] = test: Enhancement of neurite length extending from cell bodies in NGF-mediated rat PC12 cells at 50 uM after 4 days; assay type: functional
PC-12 [11] = test: Enhancement of neurite length extending from cell bodies in NGF-mediated rat PC12 cells after 4 days relative to control; assay type: functional, cell-based

In the case of `CC1=CCC[C@@H]2[C@@](C)(CCc3ccoc3)[C@H](C)[C@@H]3OC(C)(C)O[C@@H]3[C@@]12C`, the Activity (PC-12 [1]) is reported as “inactive”.
In the case of `COC1C=C(CC[C@@]2(C)[C@H](C)[C@H](O)[C@H](O)[C@@]3(C)C(C)=CCC[C@H]23)C(=O)O1` (some centres not stated), the Activity (PC-12 [2]) is reported as “inactive”, the Activity (PC-12 [3]) is reported as “inactive” and the Activity (PC-12 [1]) is reported as “inactive”.
With `CC1=CCC[C@@H]2[C@@](C)(CCC3=CC(=O)OC3)[C@H](C)[C@H](O)C[C@@]12C` the Activity (PC-12 [2]) was “inactive”, the Activity (PC-12 [3]) was “inactive” and the Activity (PC-12 [1]) was “inactive”.
In the case of `CC1=CCC[C@@H]2[C@@](CO)(CCc3ccoc3)[C@H](C)[C@H](O)C[C@@]12C`, the Activity (PC-12 [2]) is reported as “inactive”, the Activity (PC-12 [4]) is reported as “Dose-dependent effect” and the Activity (PC-12 [5]) is reported as “Toxic”. The Activity (PC-12 [6]) was 236.3 um, the Activity (PC-12 [7]) was 106.5 um and the Activity (PC-12 [8]) was 101.7 um. It also gave an Activity (PC-12 [9]) of 95.3 um.
With `CC1=CCC[C@@H]2[C@@](C)(CCc3ccoc3)[C@H](C)[C@H](O)[C@H](O)[C@@]12C` the Activity (PC-12 [2]) was “inactive”, the Activity (PC-12 [4]) was “Dose-dependent effect” and the Activity (PC-12 [10]) was 205.3 um. For the same compound, the Activity (PC-12 [6]) was 201.5 um, the Activity (PC-12 [7]) was 173.1 um and the Activity (PC-12 [8]) was 115.8 um. For the same compound, the Activity (PC-12 [9]) was 104 um and the Activity (PC-12 [11]) was “Dose-dependent effect”.

From ChEMBL document CHEMBL1141028, “Novel NGF-potentiating diterpenoids from a Brazilian medicinal plant, Ptychopetalum olacoides” (Bioorg Med Chem Lett, 2009)
